Test results: PubChem BioAssay (NCI)
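Tested at 5 concentrations; 48 h exposure; 96-well plates; endpoints linearly interpolated, else capped at highest concentration. The concentration for 50% growth inhibition is given as GI50. TGI: total growth inhibition.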

Legend:
Experiment in all cases: NCI tumour cell line growth inhibition, 48 h
A498 renal = system: A498 renal
HL-60(TB) leukemia = system: HL-60(TB) leukemia
MALME-3M melanoma = system: MALME-3M melanoma
MDA-N = system: MDA-N
NCI/ADR-RES ovarian = system: NCI/ADR-RES ovarian
OVCAR-5 ovarian = system: OVCAR-5 ovarian
OVCAR-8 ovarian = system: OVCAR-8 ovarian
SF-295 CNS = system: SF-295 CNS
SNB-75 CNS = system: SNB-75 CNS
SK-MEL-5 melanoma = system: SK-MEL-5 melanoma

| SMILES | TGI (A498 renal) [µM] | TGI (HL-60(TB) leukemia) [µM] | TGI (MALME-3M melanoma) [µM] | TGI (MDA-N) [µM] | TGI (NCI/ADR-RES ovarian) [µM] | TGI (OVCAR-5 ovarian) [µM] | TGI (OVCAR-8 ovarian) [µM] | TGI (SF-295 CNS) [µM] | TGI (SNB-75 CNS) [µM] | TGI (SK-MEL-5 melanoma) [µM] | GI50 (A498 renal) [µM] | GI50 (HL-60(TB) leukemia) [µM] | GI50 (MALME-3M melanoma) [µM] | GI50 (OVCAR-5 ovarian) [µM] | GI50 (OVCAR-8 ovarian) [µM] | GI50 (SF-295 CNS) [µM] | GI50 (SNB-75 CNS) [µM] |
| --- | --- | --- | --- | --- | --- | --- | --- | --- | --- | --- | --- | --- | --- | --- | --- | --- | --- |
| CCOC(=O)C1CCCCN1C(=O)Cc1c[nH]c2ccccc12 (stereo unspecified) | > 100 | 58.6 | > 100 | > 100 | > 100 | > 100 | > 100 | > 100 | > 100 | – | – | – | – | – | – | – | – |
| CCN(CC)C1Oc2cc3c(cc2C(c2cccc(OC)c2OC)C1C)OCO3 (stereo unspecified) | 23.3 | 4.63 | 33.5 | 50.5 | – | 48.6 | 22.6 | 16.3 | 44.7 | 21.3 | – | – | – | – | – | – | – |
| CCCc1[nH]c2ccccc2c1-c1c(CCC)[nH]c2ccccc12 | > 100 | – | 32.7 | 24.4 | 51.8 | 33.6 | 11.2 | 32.8 | 39.7 | 23.7 | – | – | – | – | – | – | – |
| C=CCC1(C)CCCN(Cc2ccccc2)C1=O (stereo unspecified) | 3.91 | > 10 | > 10 | > 10 | > 10 | > 10 | > 10 | > 10 | – | 1.48 | – | – | – | – | – | – | – |
| COc1cccc(/N=N/C(=NNC(=O)c2ccc(C)cc2)c2ccc(N(C)C)cc2)c1 | – | > 100 | – | > 100 | > 100 | > 100 | > 100 | > 100 | – | > 100 | – | – | – | – | – | – | – |
| COc1ccc(Nc2ccc([N+](=O)[O-])cc2[N+](=O)[O-])cc1CN(CCCl)CCCl | 4.94 | 7.26 | 4.71 | – | – | 8.94 | > 100 | 19.7 | 13.4 | – | 1.88 | 1.88 | 1.96 | 2.51 | 3.02 | 2.79 | 2.39 |
| COC(=O)C(=O)Cc1nc2ccccc2o1 | > 100 | > 100 | > 100 | – | – | > 100 | – | – | > 100 | – | – | – | – | – | – | – | – |
| N#CCCC1(CCC#N)CCCCCCCCC(CCC#N)(CCC#N)C(O)C1O (stereo unspecified) | > 100 | – | > 100 | > 100 | > 100 | > 100 | > 100 | > 100 | > 100 | > 100 | – | – | – | – | – | – | – |
| CC(C)(CCC(C)(C)N1OC1c1ccccc1)N1OC1c1ccccc1 (stereo unspecified) | > 100 | 44.3 | > 100 | > 100 | > 100 | – | > 100 | > 100 | > 100 | 37.8 | – | – | – | – | – | – | – |
| O=c1[nH]c2nc3ccccc3c(=O)n2/c1=C/c1ccco1 | – | > 100 | > 100 | > 100 | > 100 | > 100 | > 100 | > 100 | > 100 | > 100 | – | – | – | – | – | – | – |
| c1ccc(CC2COC(c3cccs3)=N2)cc1 (stereo unspecified) | – | > 100 | > 100 | > 100 | > 100 | > 100 | > 100 | > 100 | > 100 | > 100 | – | – | – | – | – | – | – |
| CCCCCCCCCCCC[N+](CCCCCCCCCCCC)=C1SCCS1 | 29.4 | 12.1 | 19.1 | – | – | 25.1 | 8.33 | 11.6 | 30 | 18.5 | – | – | – | – | – | – | – |
| Nc1ccc(Nc2cc(=O)[nH]c(=O)[nH]2)cc1Cl | > 100 | > 100 | > 100 | > 100 | > 100 | > 100 | > 100 | > 100 | – | > 100 | – | – | – | – | – | – | – |
| O=c1[nH]nc(-c2ccccc2)n1O | > 100 | > 100 | > 100 | > 100 | > 100 | > 100 | > 100 | > 100 | – | > 100 | – | – | – | – | – | – | – |
| O=C1CCCC/C1=C\c1ccc(Cl)c(Cl)c1 | > 100 | 48.9 | – | – | – | – | 78 | – | 46.8 | 32.5 | – | – | – | – | – | – | – |
| CC(=O)OCC1OC(OCCCOP(=S)(OCCC#N)OCC2OC(n3ccc(N)nc3=O)C(OC(=O)c3ccccc3)C2OC(=O)c2ccccc2)C(OC(C)=O)C(OC(C)=O)C1OC(C)=O (stereo unspecified) | > 100 | – | > 100 | > 100 | > 100 | > 100 | > 100 | > 100 | > 100 | > 100 | – | – | – | – | – | – | – |
| CCN(CCN(CC)C(=O)Nc1ccccc1)C(=O)Nc1ccccc1 | > 100 | > 100 | > 100 | – | > 100 | > 100 | > 100 | > 100 | > 100 | > 100 | – | – | – | – | – | – | – |
| O=NN(CCF)C(=O)NC1CCSCC1 | > 100 | > 100 | > 100 | – | > 100 | > 100 | > 100 | > 100 | > 100 | > 100 | – | – | – | – | – | – | – |
